# PubChem BioAssay (NCI)
#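 Each compound was tested at five concentrations against cells in 96-well plates for 48 hours. TGI: total growth inhibition.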
# Legend:
# Assay in all cases: NCI tumour cell line growth inhibition, 48 h
# [1] = system: 786-0 renal
# [2] = system: A549 NSCLC
# [3] = system: ACHN renal
# [4] = system: CAKI-1 renal
# [5] = system: CCRF-CEM leukemia
# [6] = system: COLO 205 colon
# [7] = system: DLD-1 colon
# [8] = system: DMS 273 small cell lung
# [9] = system: EKVX NSCLC
# [10] = system: HCC-2998 colon
# [11] = system: HCT-116 colon
# [12] = system: HCT-15 colon
# [13] = system: HL-60(TB) leukemia
# [14] = system: HOP-18 NSCLC
# [15] = system: HOP-62 NSCLC
# [16] = system: HOP-92 NSCLC
# [17] = system: HT29 colon
# [18] = system: IGROV1 ovarian
# [19] = system: K-562 leukemia
# [20] = system: KM12 colon
# [21] = system: KM20L2 colon
# [22] = system: LOX IMVI melanoma
# [23] = system: LXFL 529 NSCLC
# [24] = system: M14 melanoma
# [25] = system: M19-MEL melanoma
# [26] = system: MALME-3M melanoma
# [27] = system: MOLT-4 leukemia
# [28] = system: NCI-H226 lung
# [29] = system: NCI-H23 lung
# [30] = system: NCI-H460 lung
# [31] = system: NCI-H522 lung
# [32] = system: OVCAR-3 ovarian
# [33] = system: OVCAR-4 ovarian
# [34] = system: OVCAR-5 ovarian
# [35] = system: OVCAR-8 ovarian
# [36] = system: RPMI-8226 leukemia
# [37] = system: RXF 393 renal
# [38] = system: RXF-631 renal
# [39] = system: SF-268 CNS
# [40] = system: SF-295 CNS
# [41] = system: SF-539 CNS
# [42] = system: SK-MEL-2 melanoma
# [43] = system: SK-MEL-28 melanoma
# [44] = system: SK-MEL-5 melanoma
# [45] = system: SK-OV-3 ovarian
# [46] = system: SN12C renal
# [47] = system: SNB-19 CNS
# [48] = system: SNB-75 CNS
# [49] = system: SNB-78 CNS
# [50] = system: SR leukemia
# [51] = system: SW-620 colon
# [52] = system: TK-10 renal
# [53] = system: U251 CNS
# [54] = system: UACC-257 melanoma
# [55] = system: UACC-62 melanoma
# [56] = system: UO-31 renal
# [57] = system: XF 498 CNS
# [58] = system: A498 renal
# [59] = system: DMS 114 small cell lung
compound,measurement,setting,value
O=C(O/N=C1/CCCC/C1=C\c1ccccc1)c1ccc(Cl)c(Cl)c1,TGI,[1],96.2 µM
same,TGI,[2],32.3 µM
same,TGI,[3],30.3 µM
same,TGI,[4],67.2 µM
same,TGI,[5],53.2 µM
same,TGI,[6],81.5 µM
same,TGI,[7],> 100 µM
same,TGI,[8],53.8 µM
same,TGI,[9],> 100 µM
same,TGI,[10],> 100 µM
same,TGI,[11],26.4 µM
same,TGI,[12],> 100 µM
same,TGI,[13],34.1 µM
same,TGI,[14],> 100 µM
same,TGI,[15],> 100 µM
same,TGI,[16],> 100 µM
same,TGI,[17],48.9 µM
same,TGI,[18],52.5 µM
same,TGI,[19],34.5 µM
same,TGI,[20],> 100 µM
same,TGI,[21],> 100 µM
same,TGI,[22],42.8 µM
same,TGI,[23],27.9 µM
same,TGI,[24],> 100 µM
same,TGI,[25],> 100 µM
same,TGI,[26],> 100 µM
same,TGI,[27],60.9 µM
same,TGI,[28],> 100 µM
same,TGI,[29],36.7 µM
same,TGI,[30],> 100 µM
same,TGI,[31],33.1 µM
same,TGI,[32],41 µM
same,TGI,[33],54.4 µM
same,TGI,[34],> 100 µM
same,TGI,[35],32.5 µM
same,TGI,[36],> 100 µM
same,TGI,[37],60.2 µM
same,TGI,[38],31.8 µM
same,TGI,[39],24.6 µM
same,TGI,[40],> 100 µM
same,TGI,[41],60 µM
same,TGI,[42],> 100 µM
same,TGI,[43],68.4 µM
same,TGI,[44],> 100 µM
same,TGI,[45],> 100 µM
same,TGI,[46],> 100 µM
same,TGI,[47],> 100 µM
same,TGI,[48],61.6 µM
same,TGI,[49],39.5 µM
same,TGI,[50],> 100 µM
same,TGI,[51],35.8 µM
same,TGI,[52],58.8 µM
same,TGI,[53],32.9 µM
same,TGI,[54],> 100 µM
same,TGI,[55],45.6 µM
same,TGI,[56],31.8 µM
same,TGI,[57],> 100 µM
COc1ccc2c(c1)[n+]([O-])c(-c1c(Cl)cccc1Cl)c(N)[n+]2[O-],TGI,[1],> 100 µM
same,TGI,[58],> 100 µM
same,TGI,[2],> 100 µM
same,TGI,[3],> 100 µM
same,TGI,[4],> 100 µM
same,TGI,[5],> 100 µM
same,TGI,[6],71.6 µM
same,TGI,[7],> 100 µM
same,TGI,[59],> 100 µM
same,TGI,[8],> 100 µM
same,TGI,[9],> 100 µM
same,TGI,[10],> 100 µM
same,TGI,[12],> 100 µM
same,TGI,[13],> 100 µM
same,TGI,[16],> 100 µM
same,TGI,[17],> 100 µM
same,TGI,[18],> 100 µM
same,TGI,[19],> 100 µM
same,TGI,[20],> 100 µM
same,TGI,[21],> 100 µM
same,TGI,[22],> 100 µM
same,TGI,[23],> 100 µM
same,TGI,[24],> 100 µM
same,TGI,[25],> 100 µM
same,TGI,[26],48.4 µM
same,TGI,[27],> 100 µM
same,TGI,[28],> 100 µM
same,TGI,[29],63.7 µM
same,TGI,[30],> 100 µM
same,TGI,[32],> 100 µM
same,TGI,[33],> 100 µM
same,TGI,[34],> 100 µM
same,TGI,[35],> 100 µM
same,TGI,[36],> 100 µM
same,TGI,[38],60.1 µM
same,TGI,[39],> 100 µM
same,TGI,[40],> 100 µM
same,TGI,[42],> 100 µM
same,TGI,[43],84 µM
same,TGI,[44],42.9 µM
same,TGI,[45],> 100 µM
same,TGI,[46],> 100 µM
same,TGI,[47],> 100 µM
same,TGI,[48],> 100 µM
same,TGI,[49],> 100 µM
same,TGI,[51],> 100 µM
same,TGI,[52],> 100 µM
same,TGI,[53],> 100 µM
same,TGI,[54],61.8 µM
same,TGI,[55],> 100 µM
same,TGI,[56],> 100 µM
same,TGI,[57],> 100 µM
CCOc1ccccc1NC(=O)CC1Sc2ccccc2NC1=O (stereo unspecified),TGI,[1],> 100 µM
same,TGI,[2],> 100 µM
same,TGI,[3],> 100 µM
same,TGI,[4],> 100 µM
same,TGI,[5],> 100 µM
same,TGI,[6],> 100 µM
same,TGI,[7],> 100 µM
same,TGI,[8],> 100 µM
same,TGI,[9],> 100 µM
same,TGI,[10],> 100 µM
same,TGI,[11],> 100 µM
same,TGI,[12],> 100 µM
same,TGI,[13],67.9 µM
same,TGI,[14],> 100 µM
same,TGI,[15],> 100 µM
same,TGI,[16],76.8 µM
same,TGI,[17],> 100 µM
same,TGI,[18],> 100 µM
same,TGI,[19],> 100 µM
same,TGI,[20],> 100 µM
same,TGI,[21],> 100 µM
same,TGI,[22],> 100 µM
same,TGI,[23],> 100 µM
same,TGI,[24],> 100 µM
same,TGI,[25],> 100 µM
same,TGI,[26],> 100 µM
same,TGI,[27],> 100 µM
same,TGI,[28],> 100 µM
same,TGI,[29],> 100 µM
same,TGI,[30],> 100 µM
same,TGI,[31],73.7 µM
same,TGI,[32],> 100 µM
same,TGI,[33],> 100 µM
same,TGI,[34],> 100 µM
same,TGI,[35],> 100 µM
same,TGI,[37],> 100 µM
same,TGI,[38],> 100 µM
same,TGI,[39],> 100 µM
same,TGI,[40],> 100 µM
same,TGI,[41],> 100 µM
same,TGI,[42],> 100 µM
same,TGI,[43],> 100 µM
same,TGI,[44],86.6 µM
same,TGI,[45],> 100 µM
same,TGI,[46],> 100 µM
same,TGI,[47],> 100 µM
same,TGI,[48],> 100 µM
same,TGI,[49],> 100 µM
same,TGI,[50],75.7 µM
same,TGI,[51],> 100 µM
same,TGI,[52],> 100 µM
same,TGI,[53],> 100 µM
same,TGI,[54],> 100 µM
same,TGI,[55],> 100 µM
same,TGI,[56],> 100 µM
same,TGI,[57],> 100 µM
COc1ccc(=[O+]C)c2nssc1-2,TGI,[1],> 100 µM
same,TGI,[58],> 100 µM
same,TGI,[2],> 100 µM
same,TGI,[3],> 100 µM
same,TGI,[4],> 100 µM
same,TGI,[5],> 100 µM
same,TGI,[6],> 100 µM
same,TGI,[7],> 100 µM
same,TGI,[8],> 100 µM
same,TGI,[9],> 100 µM
same,TGI,[10],> 100 µM
same,TGI,[11],> 100 µM
same,TGI,[13],> 100 µM
same,TGI,[15],> 100 µM
same,TGI,[17],> 100 µM
same,TGI,[18],> 100 µM
same,TGI,[19],> 100 µM
same,TGI,[20],> 100 µM
same,TGI,[21],> 100 µM
same,TGI,[22],> 100 µM
same,TGI,[23],> 100 µM
same,TGI,[24],> 100 µM
same,TGI,[25],40.2 µM
same,TGI,[26],> 100 µM
same,TGI,[27],> 100 µM
same,TGI,[28],> 100 µM
same,TGI,[29],> 100 µM
same,TGI,[30],> 100 µM
same,TGI,[31],> 100 µM
same,TGI,[32],> 100 µM
same,TGI,[33],> 100 µM
same,TGI,[34],> 100 µM
same,TGI,[35],> 100 µM
same,TGI,[37],> 100 µM
same,TGI,[38],> 100 µM
same,TGI,[39],> 100 µM
same,TGI,[40],> 100 µM
same,TGI,[41],48.7 µM
same,TGI,[42],> 100 µM
same,TGI,[43],> 100 µM
same,TGI,[44],35.8 µM
same,TGI,[45],> 100 µM
same,TGI,[46],> 100 µM
same,TGI,[47],> 100 µM
same,TGI,[48],> 100 µM
same,TGI,[49],> 100 µM
same,TGI,[50],> 100 µM
same,TGI,[51],> 100 µM
same,TGI,[52],> 100 µM
same,TGI,[53],79.6 µM
same,TGI,[54],71.5 µM
same,TGI,[55],67.7 µM
same,TGI,[56],> 100 µM
same,TGI,[57],> 100 µM
O=C(O)CC(O)(c1ccccc1C(=O)O)c1cccc2ccccc12 (stereo unspecified),TGI,[1],> 100 µM
same,TGI,[58],> 100 µM
same,TGI,[2],> 100 µM
same,TGI,[3],> 100 µM
same,TGI,[4],> 100 µM
same,TGI,[5],> 100 µM
same,TGI,[6],> 100 µM
same,TGI,[7],> 100 µM
same,TGI,[59],> 100 µM
same,TGI,[8],> 100 µM
same,TGI,[9],> 100 µM
same,TGI,[11],> 100 µM
same,TGI,[12],> 100 µM
same,TGI,[13],> 100 µM
same,TGI,[14],> 100 µM
same,TGI,[15],> 100 µM
same,TGI,[16],> 100 µM
same,TGI,[17],> 100 µM
same,TGI,[18],> 100 µM
same,TGI,[19],> 100 µM
same,TGI,[20],> 100 µM
same,TGI,[22],> 100 µM
same,TGI,[23],> 100 µM
same,TGI,[24],> 100 µM
same,TGI,[25],> 100 µM
same,TGI,[26],> 100 µM
same,TGI,[27],> 100 µM
same,TGI,[28],> 100 µM
same,TGI,[29],> 100 µM
same,TGI,[30],> 100 µM
same,TGI,[31],> 100 µM
same,TGI,[32],> 100 µM
same,TGI,[33],> 100 µM
same,TGI,[34],> 100 µM
same,TGI,[35],> 100 µM
same,TGI,[36],> 100 µM
same,TGI,[37],> 100 µM
same,TGI,[38],> 100 µM
same,TGI,[39],> 100 µM
same,TGI,[40],> 100 µM
same,TGI,[41],> 100 µM
same,TGI,[42],> 100 µM
same,TGI,[43],> 100 µM
same,TGI,[44],> 100 µM
same,TGI,[45],> 100 µM
same,TGI,[46],> 100 µM
same,TGI,[47],> 100 µM
same,TGI,[48],> 100 µM
same,TGI,[49],> 100 µM
same,TGI,[50],> 100 µM
same,TGI,[51],> 100 µM
same,TGI,[52],> 100 µM
same,TGI,[53],> 100 µM
same,TGI,[54],> 100 µM
same,TGI,[55],> 100 µM
same,TGI,[56],> 100 µM
same,TGI,[57],> 100 µM
